For this experiment, the target named is T1, Glycogen phosphorylase, muscle form (Oryctolagus cuniculus, UniProt P00489).
T1 sequence (P00489 whole entry): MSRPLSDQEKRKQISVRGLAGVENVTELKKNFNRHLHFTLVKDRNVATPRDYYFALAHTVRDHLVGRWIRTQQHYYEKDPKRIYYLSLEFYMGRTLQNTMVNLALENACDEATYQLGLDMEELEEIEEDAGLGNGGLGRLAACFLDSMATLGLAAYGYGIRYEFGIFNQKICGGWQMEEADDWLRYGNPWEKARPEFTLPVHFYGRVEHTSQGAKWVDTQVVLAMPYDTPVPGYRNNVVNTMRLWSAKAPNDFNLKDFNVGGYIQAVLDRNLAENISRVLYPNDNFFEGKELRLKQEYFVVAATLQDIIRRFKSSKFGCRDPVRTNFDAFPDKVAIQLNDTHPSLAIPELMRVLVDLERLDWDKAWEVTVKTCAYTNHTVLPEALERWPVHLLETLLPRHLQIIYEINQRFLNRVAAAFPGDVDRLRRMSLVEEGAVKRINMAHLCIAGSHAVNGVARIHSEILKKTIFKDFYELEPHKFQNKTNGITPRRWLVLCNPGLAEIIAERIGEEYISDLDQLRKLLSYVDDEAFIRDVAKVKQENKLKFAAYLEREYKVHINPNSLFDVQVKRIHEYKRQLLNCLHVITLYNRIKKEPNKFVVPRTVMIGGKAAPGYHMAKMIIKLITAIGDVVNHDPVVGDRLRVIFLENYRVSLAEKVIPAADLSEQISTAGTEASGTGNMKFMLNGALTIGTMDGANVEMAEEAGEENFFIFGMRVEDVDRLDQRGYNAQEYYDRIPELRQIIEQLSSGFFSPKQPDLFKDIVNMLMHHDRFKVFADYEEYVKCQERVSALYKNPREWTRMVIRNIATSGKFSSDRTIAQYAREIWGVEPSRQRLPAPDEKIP
Nature of the experiment: Inhibition of rabbit muscle glycogen phosphorylase A assessed as release of phosphate from glucose-1-phosphate after 25 mins by microplate reader based method.
In general, IC50 refers to the point on the concentration scale where inhibition reaches its midpoint. Turning to `C[C@H]1[C@H](C)CC[C@]2(C(=O)OC3CC3)CC[C@]3(C)C(=CC[C@@H]4[C@@]5(C)C[C@@H](O)[C@H](O)C(C)(C)[C@@H]5CC[C@]43C)[C@H]12`, the IC50 is 91.2 µM.

In the case of `C[C@H]1[C@H](C)CC[C@]2(C(=O)OCCN3CCCCC3)CC[C@]3(C)C(=CC[C@@H]4[C@@]5(C)C[C@@H](O)[C@H](O)[C@@](C)(CO)[C@@H]5CC[C@]43C)[C@H]12`, the IC50 was found to be 132 µM.

Regarding `C[C@H]1[C@H](C)CC[C@]2(C(=O)OCCN3CCOCC3)CC[C@]3(C)C(=CC[C@@H]4[C@@]5(C)C[C@@H](O)[C@H](O)[C@@](C)(CO)[C@@H]5CC[C@]43C)[C@H]12`, the IC50 turned out to be 173 µM.

Regarding `COS(=O)(=O)[C@@H]1C[C@]2(C)[C@H]3CC=C4[C@@H]5[C@@H](C)[C@H](C)CC[C@]5(C(=O)OCc5ccccc5)CC[C@@]4(C)[C@]3(C)CC[C@H]2C(C)(C)[C@H]1O`, the IC50 turned out to be 43.4 µM.

As for `COC(=O)[C@@]1(C)[C@@H]2CC[C@]3(C)[C@H](CC=C4[C@@H]5[C@@H](C)[C@H](C)CC[C@]5(C(=O)O)CC[C@]43C)[C@@]2(C)C[C@@H](OC(C)=O)[C@@H]1OC(C)=O`, the half-inhibitory concentration (IC50) stood at 33 µM.

On to `CCCOC(=O)[C@@]1(C)[C@@H]2CC[C@]3(C)[C@H](CC=C4[C@@H]5[C@@H](C)[C@H](C)CC[C@]5(C(=O)O)CC[C@]43C)[C@@]2(C)C[C@@H](OC(=O)CCC)[C@@H]1OC(=O)CCC`, for which the IC50 is 10 µM.

Consider `CC1(C)CC[C@]2(C(=O)O)CC[C@]3(C)C(=CC[C@@H]4[C@@]5(C)C[C@H](O)[C@H](O)[C@@](C)(CO)[C@@H]5CC[C@]43C)[C@@H]2C1`, for which the IC50 was found to be 67.8 µM.

Take `CC1(C)CC[C@]2(C(=O)OCc3ccccc3)CC[C@]3(C)C(=CC[C@@H]4[C@@]5(C)CC(=O)[C@H](O)C(C)(C)[C@@H]5CC[C@]43C)[C@@H]2C1`: the IC50 came out at 52.9 µM.

As to `CC1(C)CC[C@]2(C(=O)O)CC[C@]3(C)C(=CC[C@@H]4[C@@]5(C)C/C(=N\O)[C@H](O)C(C)(C)[C@@H]5CC[C@]43C)[C@@H]2C1`, the IC50 is 28.2 µM.

Turning to `CC1(C)CC[C@]2(C(=O)OCc3ccccc3)CC[C@]3(C)C(=CC[C@@H]4[C@@]5(C)C/C(=N\O)[C@H](O)C(C)(C)[C@@H]5CC[C@]43C)[C@@H]2C1`, the IC50 was 179 µM.

For `CC1(C)CC[C@]2(C(=O)O)CC[C@]3(C)C(=CC[C@@H]4[C@@]5(C)C/C(=N\O)C(=O)C(C)(C)[C@@H]5CC[C@]43C)[C@@H]2C1`, the IC50 worked out at 26.1 µM.

For `CC1(C)CC[C@]2(C(=O)OCc3ccccc3)CC[C@]3(C)C(=CC[C@@H]4[C@@]5(C)C/C(=N\O)C(=O)C(C)(C)[C@@H]5CC[C@]43C)[C@@H]2C1`, the IC50 is 46.8 µM.

With `C[C@H]1[C@H](C)CC[C@]2(C(=O)OCc3ccccc3)CC[C@]3(C)C(=CC[C@@H]4[C@@]5(C)C/C(=N\O)C(=O)C(C)(C)[C@@H]5CC[C@]43C)[C@H]12`, the IC50 is 82.9 µM.

Regarding `CC1(C)CC[C@]2(C(=O)OCc3ccccc3)CC[C@]3(C)C(=CC[C@@H]4[C@@]5(C)CC(=N\O)/C(=N\O)C(C)(C)[C@@H]5CC[C@]43C)[C@@H]2C1`, the IC50 amounted to 22.3 µM.

With `CC1(C)CC[C@]2(C(=O)OCc3ccccc3)CC[C@]3(C)C(=CC[C@@H]4[C@@]5(C)C/C(=N\OCc6ccccc6)C(=O)C(C)(C)[C@@H]5CC[C@]43C)[C@@H]2C1`, the IC50 was 61.3 µM.

`CC1(C)CC[C@]2(C(=O)OCc3ccccc3)CC[C@]3(C)C(=CC[C@@H]4[C@@]5(C)C/C(=N\OCc6ccc(Cl)cc6Cl)C(=O)C(C)(C)[C@@H]5CC[C@]43C)[C@@H]2C1`: the IC50 was determined as 8 µM.

With `CC1(C)CC[C@]2(C(=O)O)CC[C@]3(C)C(=CC[C@@H]4[C@@]5(C)CC6C=NOC6C(C)(C)[C@@H]5CC[C@]43C)[C@@H]2C1` (stereo partly drawn), the IC50 is 12.7 µM.

For `CC(=O)O[C@@H]1C[C@]2(C)[C@H]3CC=C4[C@@H]5[C@@H](C)[C@H](C)CC[C@]5(C(=O)O)CC[C@@]4(C)[C@]3(C)CC[C@H]2C(C)(C)[C@H]1O`, the IC50 was 37.7 µM.

As to `CCCC(=O)O[C@@H]1C[C@]2(C)[C@H]3CC=C4[C@@H]5[C@@H](C)[C@H](C)CC[C@]5(C(=O)O)CC[C@@]4(C)[C@]3(C)CC[C@H]2C(C)(C)[C@H]1OC(=O)CCC`, the IC50 turned out to be 78.7 µM.

On to `C[C@H]1[C@H](C)CC[C@]2(C(=O)OCn3cccn3)CC[C@]3(C)C(=CC[C@@H]4[C@@]5(C)C[C@@H](O)[C@H](O)C(C)(C)[C@@H]5CC[C@]43C)[C@H]12`, for which the IC50 was 62.1 µM.

`CCOC(=O)COC(=O)[C@]12CC[C@@H](C)[C@H](C)[C@H]1C1=CC[C@@H]3[C@@]4(C)C[C@@H](O)[C@H](O)C(C)(C)[C@@H]4CC[C@@]3(C)[C@]1(C)CC2`: the IC50 came to 102 µM.

For the compound `CCCOC(=O)[C@]12CC[C@@H](C)[C@H](C)[C@H]1C1=CC[C@@H]3[C@@]4(C)C[C@@H](O)[C@H](O)C(C)(C)[C@@H]4CC[C@@]3(C)[C@]1(C)CC2`, the IC50 was found to be 82.5 µM.

For `CCCCOC(=O)[C@]12CC[C@@H](C)[C@H](C)[C@H]1C1=CC[C@@H]3[C@@]4(C)C[C@@H](O)[C@H](O)C(C)(C)[C@@H]4CC[C@@]3(C)[C@]1(C)CC2`, the half-maximal inhibitory concentration (IC50) amounted to 92.1 µM.

As to `CCCCCC(=O)O[C@@H]1C[C@]2(C)[C@H]3CC=C4[C@@H]5[C@@H](C)[C@H](C)CC[C@]5(C(=O)O)CC[C@@]4(C)[C@]3(C)CC[C@H]2C(C)(C)[C@H]1O`, the IC50 worked out at 3.26 µM.

On to `C[C@H]1[C@H](C)CC[C@]2(C(=O)OCc3ccccc3)CC[C@]3(C)C(=CC[C@@H]4[C@@]5(C)C[C@@H](O)[C@H](O)C(C)(C)[C@@H]5CC[C@]43C)[C@H]12`, for which the IC50 came out at 41.2 µM.

As to `CCOC(=O)[C@]12CC[C@@H](C)[C@H](C)[C@H]1C1=CC[C@@H]3[C@@]4(C)C[C@@H](O)[C@H](O)C(C)(C)[C@@H]4CC[C@@]3(C)[C@]1(C)CC2`, the IC50 turned out to be 46.7 µM.

`C[C@H]1[C@H](C)CC[C@]2(C(=O)OCc3ccccc3)CC[C@]3(C)C(=CC[C@@H]4[C@@]5(C)C[C@@H](O)C(=O)C(C)(C)[C@@H]5CC[C@]43C)[C@H]12`: the IC50 was 31.8 µM.

Take `C[C@H]1[C@H](C)CC[C@]2(C(=O)OCc3ccccc3)CC[C@]3(C)C(=CC[C@@H]4[C@@]5(C)C[C@H](O)[C@H](O)C(C)(C)[C@@H]5CC[C@]43C)[C@H]12`: the IC50 was determined as 108 µM.

With `C[C@H]1[C@H](C)CC[C@]2(C(=O)O)CC[C@]3(C)C(=CC[C@@H]4[C@@]5(C)C[C@@H](OC(=O)c6ccccc6)[C@H](O)C(C)(C)[C@@H]5CC[C@]43C)[C@H]12`, the IC50 is 5.1 µM.

`CC(=O)O[C@@H]1C[C@]2(C)[C@H]3CC=C4[C@@H]5[C@@H](C)[C@H](C)CC[C@]5(C(=O)O)CC[C@@]4(C)[C@]3(C)CC[C@H]2C(C)(C)[C@H]1OC(C)=O`: the IC50 worked out at 35 µM.

For `CCC(=O)O[C@@H]1C[C@]2(C)[C@H]3CC=C4[C@@H]5[C@@H](C)[C@H](C)CC[C@]5(C(=O)O)CC[C@@]4(C)[C@]3(C)CC[C@H]2C(C)(C)[C@H]1OC(=O)CC`, the IC50 worked out at 73.7 µM.

With `C[C@H]1[C@H](C)CC[C@]2(C(=O)OCc3ccccc3)CC[C@]3(C)C(=CC[C@@H]4[C@@]5(C)C[C@@H]6O[C@@H]6C(C)(C)[C@@H]5CC[C@]43C)[C@H]12`, the IC50 was 69.5 µM.

Regarding `CCCC(=O)O[C@@H]1C[C@]2(C)[C@H]3CC=C4[C@@H]5[C@@H](C)[C@H](C)CC[C@]5(C(=O)O)CC[C@@]4(C)[C@]3(C)CC[C@H]2C(C)(C)[C@H]1O`, the IC50 came to 77.9 µM.

The record behind these values is ChEMBL document CHEMBL1795338, “Identification of pentacyclic triterpenes derivatives as potent inhibitors against glycogen phosphorylase based on 3D-QSAR studies” (Eur J Med Chem, 2011).
